Data reported in paper PMC4674085, “Towards Prebiotic Catalytic Amyloids Using High Throughput Screening” (PLoS ONE, 2015).

How the values were obtained:
[1] = Time-dependent 4NPA hydrolysis rate during fibrillization; assay type: biochemical; conditions: 50 μM peptide, 50 mM HEPES pH 7.3, 0.5 mM ZnCl2, 1 mM 4NPA, derivative of A400
Procedure: For more direct evidence that the amyloid is the catalytically active state, we attempted to measure the catalysis rate during the aggregation of 35 in order to correlate the amyloid formation with an increase in hydrolytic activity. Since the aggregation is too fast to measure a steady-state hydrolysis rate, an instantaneous time-dependent rate of 4NPA hydrolysis was calculated from the derivative of the A400 measurements (Fig 3A). In parallel, an identical sample was monitored at 218 nm for the β-strand-typical ellipticity (Fig 3C). Note that the absorbance of 50 mM HEPES prevented the measurement of a full spectrum (190–260 nm) under the identical aggregation conditions, however when performed with 10 mM HEPES, the spectrum clearly indicates a move towards increasing β-structure upon mixing the peptide with buffer at pH 7.3 (Figure B in S1 File). […]
Fig 3 Parallel kinetics of fibrillization and hydrolysis activity. Kinetics of fibrillization measured by CD (c) matches the appearance of the 4NPA hydrolysis activity (a). a) A stock of 35 at 200 μM in 10 mM HCl was diluted to a final concentration of 50 μM into 50 mM HEPES pH 7.3 with 0.5 mM ZnCl2 and 1 mM 4NPA. After ca. 10 s mixing time, the hydrolysis of 4NPA was recorded every 1 s for 20 min at 400 nm and the first derivative of this signal (the instantaneous rate) is plotted as a function of time. […]

[2] = Circular dichroism (CD), secondary structure of aggregates; assay type: physicochemical; conditions: 50 μM peptide in 10 mM HCl, time-stable spectrum
[3] = Plate reader 4NPA hydrolysis kinetics of purified peptide amyloids at pH 7.3; assay type: biochemical; conditions: 4NPA hydrolysis, pH 7.3 HEPES with zinc(II), 20 μM purified peptide
Procedure: The reaction buffer consisted of the same buffer as the fibrillization buffer without ZnCl2 and with 1.33 mM 4NPA prepared from a 100 mM stock in CH3CN. The samples of the amyloid library were mixed 1:3 with the reaction buffer yielding 40 μM peptide and, when present 250 μM zinc(II). The absorbance measurements were performed in a BMG Pherastar platereader with a 400 nm band-pass filter (10 nm bandwidth) in 96-well Nunclon Delta surface plates or 384-well Greiner Bio-One non-bind black μclear plates.
The kinetics assays performed on the purified peptides were prepared similarly except that the peptide concentration was 20 μM in the reaction. Furthermore, the various substrate concentrations and replicate samples were randomly distributed over the plate to minimize systematic errors. Various 4NPA concentrations (i.e. 0.1 mM, 0.2 mM, 0.4 mM, 0.6 mM, 1.0 mM) were added from a 100 times stock so that the final CH3CN concentration was always 1%. The linear part of the hydrolysis activity was fit with an extinction coefficient of ε = 9700 M^-1cm^-1 and corrected for the background reaction rate of buffer alone (v bg = 5.0 × 10^-6 Ms^-1) to obtain the initial reaction rate v 0. The average of the initial reaction rates at each substrate concentration were then fit to the Michaelis-Menten type kinetics to obtain k cat, K M and k cat/K M always calculated per monomer peptide. The background reaction rate was obtained similarly using 5 replicates.

## Ac-YVHVHVAV-NH2 [Peptide 35, Ac-YVHVHVAV-CONH2]
[1]
  activity of the monomeric peptide (by extrapolation to t = 0): not significantly above the background hydrolysis
[2]
  CD spectrum in 10 mM HCl: mostly random coil
[3]; 0.1-1.0 mM 4NPA, 1% CH3CN, A400, Michaelis-Menten fit, per monomer peptide, triplicate (duplicate for 8, 27, 34, 35)
  k cat/K M: 7.38 ± 0.63 M⁻¹ s⁻¹
[3]; Michaelis-Menten fit
  K M: 630 ± 100 µM
[3]; Michaelis-Menten fit, per monomer peptide
  k cat: 0.463±0.039 10^-2s^-1
